The record followed here is patent US20240409585A1, “MACROCYCLIC IMMUNOMODULATORS” (priority 2021, published 2024).

The target of this assay is T1, PE-labeled human PD-L1-Ig binding to Jurkat cell line over-expressing human PD-1 (Jurkat-PD-1) (Homo sapiens, UniProt Q15116).
T1 construct: expressed in transfected cells; host or cells: Jurkat
The assay is described as follows: Jurkat-PD-1 Cell Binding High-Content Screening Assay (CBA): Method 1. The note with it: Jurkat-hPD-1 cells, PE-labeled PD-L1-Ig 20 nM final; read-out: Jurkat HPDL1 PD1 IC50 (uM) (Method 1).

Bridge positions count the residues as written; N and C are the ends. Square brackets hold non-standard residues; d marks the D form. Peptide text beside a SMILES is read from it. * marks the point of attachment. ξ: configuration not given here. Phe(4-CONH2) = NC(=O)c1ccc(C[C@H](N)C(=O)O)cc1; Phe(4-COOH) = N[C@@H](Cc1ccc(C(=O)O)cc1)C(=O)O; dPhe(3,4-F2) = N[C@H](Cc1ccc(F)c(F)c1)C(=O)O; Bip = N[C@@H](Cc1ccc(-c2ccccc2)cc1)C(=O)O; Phe(3-Me) = Cc1cccc(C[C@H](N)C(=O)O)c1; Phe(2-Me) = Cc1ccccc1C[C@H](N)C(=O)O; Val(3-OH) = CC(C)(O)[C@H](N)C(=O)O; 4Pal = N[C@@H](Cc1ccncc1)C(=O)O; Cha = N[C@@H](CC1CCCCC1)C(=O)O; Cit = NC(=O)NCCC[C@H](N)C(=O)O; Ile(3ξ) = CCC(C)[C@H](N)C(=O)O; Thr(3ξ) = CC(O)[C@H](N)C(=O)O; Tle = CC(C)(C)[C@H](N)C(=O)O; Carboxymethyl = O=C(O)C*; NMeA = CN[C@@H](C)C(=O)O; Nle = CCCC[C@H](N)C(=O)O; Orn = NCCC[C@H](N)C(=O)O; Dab = NCC[C@H](N)C(=O)O; Dap = NC[C@H](N)C(=O)O; Piv = CC(C)(C)C(=O)*

One may read the IC50 as the concentration that gives 50% inhibition.

T1 sequence (Q15116 25-288): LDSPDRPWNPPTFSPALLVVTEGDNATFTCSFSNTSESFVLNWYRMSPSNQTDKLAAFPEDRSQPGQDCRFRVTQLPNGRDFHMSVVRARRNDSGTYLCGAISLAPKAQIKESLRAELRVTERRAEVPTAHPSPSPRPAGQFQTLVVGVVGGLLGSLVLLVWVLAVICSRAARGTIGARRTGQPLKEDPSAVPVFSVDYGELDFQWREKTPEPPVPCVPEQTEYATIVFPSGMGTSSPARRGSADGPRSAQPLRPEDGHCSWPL

Turning to `Cc1ccccc1C[C@@H]1NC(=O)[C@H](CC(=O)O)NC(=O)[C@H](Cc2ccc(O)cc2)NC(=O)[C@H](CC(N)=O)NC(=O)CSC[C@@H](C(=O)N[C@@H](C)C(N)=O)NC(=O)[C@H]([C@@H](C)O)NC(=O)[C@H](C(C)C)NC(=O)[C@H](CC(C)C)NC(=O)[C@H](CCCNC(=N)N)NC(=O)[C@@H](CC(C)C)NC(=O)[C@H](C)N(C)C(=O)[C@H](CCCNC(=N)N)NC(=O)[C@H](Cc2ccc(-c3ccccc3)cc2)NC(=O)[C@H](C(C)C)NC1=O` [Compound 1197] ({CH2CO}-NYD[Phe(2-Me)]V[Bip]R[NMeA][dL]RLVTCA-NH2; thioether N-14), the IC50 stood at 0.36 µM.
Turning to `Cc1cccc(C[C@@H]2NC(=O)[C@H](CC(=O)O)NC(=O)[C@H](Cc3ccc(OCC(=O)O)cc3)NC(=O)[C@H](Cc3ccncc3)NC(=O)CSC[C@@H](C(=O)N[C@@H](CCN)C(N)=O)NC(=O)[C@H](CCC(N)=O)NC(=O)[C@H](C(C)(C)O)NC(=O)[C@H](CC3CCCCC3)NC(=O)[C@H](CCN)NC(=O)[C@@H](CC(C)C)NC(=O)[C@H](C)N(C)C(=O)[C@H](Cc3ccc(OCC(=O)O)cc3)NC(=O)[C@H](Cc3ccc(-c4ccccc4)cc3)NC(=O)[C@H](Cc3ccc(OCC(=O)O)cc3)NC2=O)c1` [Compound 2192] ({CH2CO}-[4Pal]Y(Carboxymethyl)D[Phe(3-Me)]Y(Carboxymethyl)[Bip]Y(Carboxymethyl)[NMeA][dL][Dab][Cha][Val(3-OH)]QC[Dab]-NH2; thioether N-14), the IC50 turned out to be 0.02 µM.
For the compound `Cc1cccc(C[C@@H]2NC(=O)[C@H](CC(=O)O)NC(=O)[C@H](Cc3ccc(OCC(=O)O)cc3)NC(=O)[C@H](CN)NC(=O)CSC[C@@H](C(N)=O)NC(=O)[C@H](CC(N)=O)NC(=O)[C@H](C(C)C)NC(=O)[C@H](CC3CCCCC3)NC(=O)[C@H](CCN)NC(=O)[C@@H](CC(C)C)NC(=O)[C@H](C)N(C)C(=O)[C@H](Cc3ccc(OCC(=O)O)cc3)NC(=O)[C@H](Cc3ccc(-c4ccccc4)cc3)NC(=O)[C@H](Cc3ccc(OCC(=O)O)cc3)NC2=O)c1` [Compound 1647] ({CH2CO}-[Dap]Y(Carboxymethyl)D[Phe(3-Me)]Y(Carboxymethyl)[Bip]Y(Carboxymethyl)[NMeA][dL][Dab][Cha]VNC-NH2; thioether N-14), the half-inhibitory concentration (IC50) worked out at 0.04 µM.
Take `CC(C)C[C@@H]1NC(=O)[C@H](CCCN)NC(=O)[C@@H](CC(C)C)NC(=O)[C@H](C)N(C)C(=O)[C@H](CCCNC(=N)N)NC(=O)[C@H](Cc2ccc(-c3ccccc3)cc2)NC(=O)[C@H](C(C)C)NC(=O)[C@H](Cc2c[nH]c3ccccc23)NC(=O)[C@H](CC(=O)O)NC(=O)[C@H](Cc2ccc(O)cc2)NC(=O)[C@H](Cc2ccccc2)NC(=O)CSC[C@@H](C(=O)N[C@@H](CO)C(N)=O)NC(=O)[C@H]([C@@H](C)O)NC(=O)[C@H](C(C)C)NC1=O` [Compound 1176] ({CH2CO}-FYDWV[Bip]R[NMeA][dL][Orn]LVTCS-NH2; thioether N-14): the IC50 came to 0.07 µM.
On to `Cc1cccc(C[C@@H]2NC(=O)[C@H](CC(=O)O)NC(=O)[C@H](Cc3ccc(OCC(=O)O)cc3)NC(=O)[C@H](CN)NC(=O)CSC[C@@H](C(=O)N[C@@H](CCNC(=O)C(C)(C)C)C(N)=O)NC(=O)[C@H]([C@@H](C)O)NC(=O)[C@H](C(C)C)NC(=O)[C@H](CC3CCCCC3)NC(=O)[C@H](CCN)NC(=O)[C@@H](CC(C)C)NC(=O)[C@H](C)N(C)C(=O)[C@H](Cc3ccc(OCC(=O)O)cc3)NC(=O)[C@H](Cc3ccc(-c4ccccc4)cc3)NC(=O)[C@H](Cc3ccc(OCC(=O)O)cc3)NC2=O)c1` [Compound 1866] ({CH2CO}-[Dap]Y(Carboxymethyl)D[Phe(3-Me)]Y(Carboxymethyl)[Bip]Y(Carboxymethyl)[NMeA][dL][Dab][Cha]VTC[Dab](Piv)-NH2; thioether N-14), for which the IC50 was determined as 0.05 µM.
For the compound `CC(C)C[C@@H]1NC(=O)[C@H](CCCNC(=N)N)NC(=O)[C@@H](Cc2ccc(F)c(F)c2)NC(=O)[C@H](C)N(C)C(=O)[C@H](CCCNC(=N)N)NC(=O)[C@H](Cc2ccc(-c3ccccc3)cc2)NC(=O)[C@H](C(C)C)NC(=O)[C@H](Cc2c[nH]c3ccccc23)NC(=O)[C@H](CC(=O)O)NC(=O)[C@H](Cc2ccc(O)cc2)NC(=O)[C@H](Cc2ccccc2)NC(=O)CSC[C@@H](C(=O)N[C@@H](C)C(N)=O)NC(=O)[C@H]([C@@H](C)O)NC(=O)[C@H](C(C)C)NC1=O` [Compound 1103] ({CH2CO}-FYDWV[Bip]R[NMeA][dPhe(3,4-F2)]RLVTCA-NH2; thioether N-14), the IC50 stood at 0.69 µM.
For `CC(C)C[C@@H]1NC(=O)[C@H](CCN)NC(=O)[C@@H](CC(C)C)NC(=O)[C@H](C)N(C)C(=O)[C@H](CCCNC(N)=O)NC(=O)[C@H](Cc2ccc(-c3ccccc3)cc2)NC(=O)[C@H](C(C)C)NC(=O)[C@H](Cc2c[nH]c3ccccc23)NC(=O)[C@H](CC(=O)O)NC(=O)[C@H](Cc2ccc(O)cc2)NC(=O)[C@H](Cc2ccc(C(=O)O)cc2)NC(=O)CSC[C@@H](C(=O)N[C@@H](C)C(N)=O)NC(=O)[C@H]([C@@H](C)O)NC(=O)[C@H](C(C)C)NC1=O` [Compound 1326] ({CH2CO}-[Phe(4-COOH)]YDWV[Bip][Cit][NMeA][dL][Dab]LVTCA-NH2; thioether N-14), the IC50 stood at 0.02 µM.
As to `Cc1cccc(C[C@@H]2NC(=O)[C@H](CC(=O)O)NC(=O)[C@H](Cc3ccc(C(=O)O)cc3)NC(=O)[C@H](Cc3ccncc3)NC(=O)CSC[C@@H](C(=O)N[C@@H](CO)C(N)=O)NC(=O)[C@H](CCC(=O)O)NC(=O)[C@H](C(C)(C)O)NC(=O)[C@H](CC3CCCCC3)NC(=O)[C@H](CCN)NC(=O)[C@@H](CC(C)C)NC(=O)[C@H](C)N(C)C(=O)[C@H](Cc3ccc(OCC(=O)O)cc3)NC(=O)[C@H](Cc3ccc(-c4ccccc4)cc3)NC(=O)[C@H](Cc3ccc(OCC(=O)O)cc3)NC2=O)c1` [Compound 2194] ({CH2CO}-[4Pal][Phe(4-COOH)]D[Phe(3-Me)]Y(Carboxymethyl)[Bip]Y(Carboxymethyl)[NMeA][dL][Dab][Cha][Val(3-OH)]ECS-NH2; thioether N-14), the IC50 is 0.26 µM.
Under `CC(C)C[C@@H]1NC(=O)[C@H](CCC(=O)O)NC(=O)[C@@H](CC(C)C)NC(=O)[C@H](C)N(C)C(=O)[C@H](CCCCN)NC(=O)[C@H](Cc2ccc(-c3ccccc3)cc2)NC(=O)[C@H](C(C)C)NC(=O)[C@H](Cc2c[nH]c3ccccc23)NC(=O)[C@H](CC(=O)O)NC(=O)[C@H](Cc2ccc(O)cc2)NC(=O)[C@H](Cc2ccncc2)NC(=O)CSC[C@@H](C(=O)N[C@@H](C)C(N)=O)NC(=O)[C@H](C(C)O)NC(=O)[C@H](C(C)C)NC1=O` (stereo partly drawn) [Compound 2058] ({CH2CO}-[4Pal]YDWV[Bip]K[NMeA][dL]ELV[Thr(3ξ)]CA-NH2; thioether N-14) stands 0.04 µM; under `CC(=O)NCCC[C@@H]1NC(=O)[C@H](Cc2ccc(-c3ccccc3)cc2)NC(=O)[C@H](Cc2ccc(O)cc2)NC(=O)[C@H](Cc2cccc(C)c2)NC(=O)[C@H](CC(=O)O)NC(=O)[C@H](Cc2ccc(OCC(=O)O)cc2)NC(=O)[C@H](CCCNC(=N)N)NC(=O)CSC[C@@H](C(N)=O)NC(=O)[C@H]([C@@H](C)O)NC(=O)[C@H](C(C)C)NC(=O)[C@H](CC2CCCCC2)NC(=O)[C@H](CCN)NC(=O)[C@@H](CC(C)C)NC(=O)[C@H](C)N(C)C1=O` [Compound 1869] ({CH2CO}-RY(Carboxymethyl)D[Phe(3-Me)]Y[Bip][Orn](Ac)[NMeA][dL][Dab][Cha]VTC-NH2; thioether N-14), 0.05 µM; under `CCCC[C@@H]1NC(=O)[C@H](CC(N)=O)NC(=O)[C@@H](C)NC(=O)[C@H](C)N(C)C(=O)[C@H](C(C)C)NC(=O)[C@H](Cc2ccc(-c3ccccc3)cc2)NC(=O)[C@H](CC(C)C)NC(=O)[C@H](Cc2c[nH]c3ccccc23)NC(=O)[C@H](CC(=O)O)NC(=O)[C@H](Cc2ccc(O)cc2)NC(=O)[C@H](Cc2ccccc2)NC(=O)CSC[C@@H](C(=O)N[C@@H](C)C(N)=O)NC(=O)[C@H]([C@@H](C)O)NC(=O)[C@H](C(C)C)NC1=O` [Compound 1778] ({CH2CO}-FYDWL[Bip]V[NMeA][dA]N[Nle]VTCA-NH2; thioether N-14), 0.07 µM.
Consider `Cc1cccc(C[C@@H]2NC(=O)[C@H](CC(=O)O)NC(=O)[C@H](Cc3ccc(OCC(=O)O)cc3)NC(=O)[C@H](CCN)NC(=O)CSC[C@@H](C(=O)N[C@@H](CO)C(N)=O)NC(=O)[C@H](CO)NC(=O)[C@H](C(C)(C)O)NC(=O)[C@H](CC3CCCCC3)NC(=O)[C@H](CCN)NC(=O)[C@@H](CC(C)C)NC(=O)[C@H](C)N(C)C(=O)[C@H](Cc3ccc(C(=O)O)cc3)NC(=O)[C@H](Cc3ccc(-c4ccccc4)cc3)NC(=O)[C@H](Cc3ccc(C(N)=O)cc3)NC2=O)c1` [Compound 2179] ({CH2CO}-[Dab]Y(Carboxymethyl)D[Phe(3-Me)][Phe(4-CONH2)][Bip][Phe(4-COOH)][NMeA][dL][Dab][Cha][Val(3-OH)]SCS-NH2; thioether N-14), for which the IC50 turned out to be 0.06 µM.
For the compound `CC(C)C[C@@H]1NC(=O)[C@H](Cc2c[nH]c3ccccc23)NC(=O)[C@H](CC(=O)O)NC(=O)[C@H](Cc2ccc(C(=O)O)cc2)NC(=O)[C@H](Cc2ccc(OCC(=O)O)cc2)NC(=O)CSC[C@@H](C(=O)N[C@@H](CC(N)=O)C(N)=O)NC(=O)[C@H](CO)NC(=O)[C@H](C(C)(C)C)NC(=O)[C@H](CC2CCCCC2)NC(=O)[C@H](CCN)NC(=O)[C@@H](CC(C)C)NC(=O)[C@H](C)N(C)C(=O)[C@H](C(C)C)NC(=O)[C@H](Cc2ccc(-c3ccccc3)cc2)NC1=O` [Compound 1914] ({CH2CO}-Y(Carboxymethyl)[Phe(4-COOH)]DWL[Bip]V[NMeA][dL][Dab][Cha][Tle]SCN-NH2; thioether N-14), the IC50 was found to be 0.01 µM.
For the compound `CCC(C)[C@@H]1NC(=O)[C@H](Cc2ccc(-c3ccccc3)cc2)NC(=O)[C@H](CC(C)C)NC(=O)[C@H](Cc2c[nH]c3ccccc23)NC(=O)[C@H](CC(=O)O)NC(=O)[C@H](Cc2ccc(C(=O)O)cc2)NC(=O)[C@H](Cc2ccc(OCC(=O)O)cc2)NC(=O)CSC[C@@H](C(=O)N[C@@H](CC(N)=O)C(N)=O)NC(=O)[C@H]([C@@H](C)O)NC(=O)[C@H](C(C)C)NC(=O)[C@H](CC2CCCCC2)NC(=O)[C@H](CCN)NC(=O)[C@@H](CC(C)C)NC(=O)[C@H](C)N(C)C1=O` (stereo partly drawn) [Compound 1922] ({CH2CO}-Y(Carboxymethyl)[Phe(4-COOH)]DWL[Bip][Ile(3ξ)][NMeA][dL][Dab][Cha]VTCN-NH2; thioether N-14), the IC50 was found to be 0.04 µM.
